According to patent publication US12005050B2, “Methods for preventing or treating H. pylori infection” (TENNOR THERAPEUTICS (SUZHOU) LIMITED, priority 2022, dated 2024):

Columns and labels:
[1] = Solubility of drug substance; format: physicochemical
Helicobacter pylori [2] = assay: H. pylori eradication by urea breath test (UBT) (Example 1); format: in vivo; details: for Patients with UBT negative results: N = 10
Protocol: 40 asymptomatic healthy patients that are positive for Helicobacter pylori infection were admitted to the trial. The 40 patients were randomly allocated to four groups at a ratio of 1:1:1:1.
Different therapies were administered to the patients of each group according to the schedule below: • Group A: • Compound I capsule 200 mg/time (2 capsules, 100 mg/capsule), twice per day (BID); rabeprazole sodium enteric-coated tablet 20 mg/time (1 tablet, 20 mg/tablet), twice per day (BID) • Group B: • Compound I capsule 400 mg/time (4 capsules, 100 mg/capsule), twice per day (BID); rabeprazole sodium enteric-coated tablet 20 mg/time (1 tablet, 20 mg/tablet), twice per day (BID) • Group C: • Compound I capsule 600 mg/time (6 capsules, 100 mg/capsule), twice per day (BID); rabeprazole sodium enteric-coated tablet 20 mg/time (1 tablet, 20 mg/tablet), twice per day (BID) • Group D: • Compound I capsule 400 mg/time (4 capsules, 100 mg/capsule), twice per day (BID); rabeprazole sodium enteric-coated tablet 20 mg/time (1 tablet, 20 mg/tablet), twice per day (BID); amoxicillin capsule 1 g/time (4 capsules, 0.25 g/capsule), twice per day (BID)
All patients were admitted to the clinical research center 1 day before dosing (D-1 Day), randomly allocated to respective groups and completed examinations for safety and baseline indicators. From day 1 to day 14, respective therapies/drugs were orally administered to the patients within 30 minutes after breakfast and dinner. On day 15, the last dose was administered orally to the patients within 30 minutes after breakfast. During the trial, each patient was dosed for 29 times in total. All patients left the hospital after completing a safety tolerance assessment on day 17 and returned to the clinical research center for urea breath test (UBT) follow-up examination between days 44 and 50 to evaluate the effect of Helicobacter pylori eradication.
The initial analysis of eradication effect was based on the full data set, which is defined as all patients who were randomly selected and received at least one dose of the trial combination therapy.
The eradication effects in each trial group were evaluated by UBT tests (negative or positive) conducted at the baseline time point, on day 8 after drug administration, day 16 after drug administration and day 44-50 of follow-up visit. Descriptive analysis was done using frequency (percentage), and comparison between groups was made. Fisher precision test was used to conduct between-group comparison analysis. As an aid to the analysis, the UBT values were listed as mean, standard deviation, median, minimum, maximum, and deviation from the baseline.

Helicobacter pylori [3] = assay: H. pylori eradication by 14C UBT test (Example 2); format: in vivo; details: BID × 14 day; for UBT results Negative / UBT results Positive: treatment group A: Compound I capsule 400 mg + rabeprazole sodium 20 mg + amoxicillin 1 g
Protocol: In this example, 80 patients that are positive for Helicobacter pylori infection were admitted to the trial. The 80 patients were randomly allocated to 5 groups at a ratio of 2:2:1:1:2, including 4 treatment groups and 1 control group, and the dosage regimen is shown in Table 4.
Patients were administered with the combination therapy daily according to the dosing regimen of the respective group from day 1 to day 14, and the last dose was administered in the morning of day 15. Pharmacokinetic blood samples were collected at the scheduled time point during the trial and patiented to a safety tolerance assessment and ^14C UBT test. All patients left the hospital after completing the safety tolerance assessment and PK blood collection on the 17th day (day 17), and returned to the research institution for follow-up visits from the 44th to 50th day (day 44-day 50). Follow-up of adverse events and laboratory abnormalities continued until the patients completely recovered or returned to baseline levels or stable states. Safety tolerance assessment, and ^14C UBT tests were performed to assess H. pylori eradication effects.
The administration regimen was as follows: • Group A, Group B and Control Group: • Twice per day, the combination therapy was administered orally within 30 mins after breakfast and dinner, respectively, and the combination therapy was administered for 14 days consecutively. On day 15, the last administration was provided within 30 mins after breakfast. Each patient was administered for 29 times in total. • Group C and Group D: • Three times per day, and two administrations were separated by about 8 hours.
Patients were examined with ^14C UBT test during the screening period (D-14˜D-2), baseline period (D-1), day 8 (D8), day 16 (D16) and days 44˜50 (D44˜D50). The test was done fasting before breakfast to determine the effects of H. pylori eradication in each group.
• Full Analysis Set (FAS): refers to all randomized patients who have been administered with the combination therapy of the present disclosure at least once; • Modified Intentionality Analysis Set (mITT): refers to all randomized patients who underwent a ^14C UBT test on days 28 to 34 after the last administration; • Protocol-compliant Set (PP): refers to patients who have not experienced major protocol violations: randomized and treated with more than 80% (including 80%) of the total amount of the drug expected to be used in the investigation, and who were tested for ^14C UBT on days 28 to 34 after the last administration; • Safety Analysis Set (SS): refers to the patients who have entered the trial and have been administered the combination therapy of the present disclosure at least once; • Pharmacokinetic Concentration Analysis Dataset (PKCS): refers to all enrolled patients who have been administered with the combination therapy of the present disclosure and had at least one PK concentration observation; • Pharmacokinetic Parameter Analysis Dataset (PKPS): Refers to all enrolled patients who have been administered with the combination therapy of the present disclosure and had at least one PK parameter observation data point. Demographic Analysis: • Demographic analysis was based on Full Analysis Set (FAS). Descriptive statistical analysis of all demographics (age, sex, weight, height, BMI, ethnicity, etc.) and baseline characteristics, based on the measurement of the last valid data before the administration of the combination therapy of the present disclosure. Evaluation of the Eradication Effect of Helicobacter pylori: • The eradication effect analysis was performed with the Full Analysis Set (FAS), based on the results of four ^14C UBT tests (negative or positive) in group A, group B, group C, and control groups at baseline, on day 8, day 16, and follow-up days 44 to 50, and three ^14C UBT test results (negative or positive) in group D at baseline, on day 8, and follow-up days 37 to 43. […]

[4] = Day 8 after administration, FAS N = 20
[5] = Day 8 after administration, mITT N = 19
[6] = Day 16 after administration, FAS N = 20
[7] = Day 16 after administration, mITT N = 19
[8] = Follow up period (Day 44~Day 50), FAS N = 20
[9] = Follow up period (Day 44~Day 50), mITT N = 19

Q: Which “Solubility of drug substance” value [1] does the source give for CO[C@H]1/C=C/O[C@@]2(C)Oc3c(C)c(O)c4c(c3C2=O)C2=NC3(CCN(CCn5c([N+](=O)[O-])cnc5C)CC3)NC2=C(NC(=O)/C(C)=C\C=C\[C@H](C)[C@H](O)[C@@H](C)[C@@H](O)[C@@H](C)[C@H](OC(C)=O)[C@@H]1C)C4=O [Compound I, 4-Deoxy-3,4-[2-spiro-[1-[2-(2-methyl-5-nitro-imidazol-1-yl)ethyl]-piperidin-4-yl]]-(1H)-imidazo-(2,5-dihydro)rifamycin] here?
A: low solubility

Q: And the “Patients with UBT negative results” value (Helicobacter pylori [2]; Day 8, Group A: Compound I 200 mg BID + rabeprazole sodium 20 mg BID)?
A: 7 (70.0) n(%)

Q: And the “Patients with UBT negative results” value (Helicobacter pylori [2]; Day 8, Group B: Compound I 400 mg BID + rabeprazole sodium 20 mg BID)?
A: 10 (100.0) n(%)

Q: What about the “Patients with UBT negative results” value (Helicobacter pylori [2]; Day 8, Group C: Compound I 600 mg BID + rabeprazole sodium 20 mg BID) of the same compound?
A: 8 (80.0) n(%)

Q: What about the “Patients with UBT negative results” value (Helicobacter pylori [2]; Day 8, Group D: Compound I 400 mg BID + rabeprazole sodium 20 mg BID + amoxicillin 1 g BID) of the same compound?
A: 7 (70.0) n(%)

Q: And the “Patients with UBT negative results” value (Helicobacter pylori [2]; Day 16, Group A: Compound I 200 mg BID + rabeprazole sodium 20 mg BID)?
A: 3 (30.0) n(%)

Q: What about the “Patients with UBT negative results” value (Helicobacter pylori [2]; Day 16, Group B: Compound I 400 mg BID + rabeprazole sodium 20 mg BID) of the same compound?
A: 5 (50.0) n(%)

Q: And the “Patients with UBT negative results” value (Helicobacter pylori [2]; Day 16, Group C: Compound I 600 mg BID + rabeprazole sodium 20 mg BID)?
A: 6 (60.0) n(%)

Q: What about the “Patients with UBT negative results” value (Helicobacter pylori [2]; Day 16, Group D: Compound I 400 mg BID + rabeprazole sodium 20 mg BID + amoxicillin 1 g BID) of the same compound?
A: 10 (100.0) n(%)

Q: What about the “Patients with UBT negative results” value (Helicobacter pylori [2]; Follow up period (Day 44~50), Group A: Compound I 200 mg BID + rabeprazole sodium 20 mg BID) of the same compound?
A: 0 (0.0) n(%)

Q: And the “Patients with UBT negative results” value (Helicobacter pylori [2]; Follow up period (Day 44~50), Group B: Compound I 400 mg BID + rabeprazole sodium 20 mg BID)?
A: 3 (30.0) n(%)

Q: And the “Patients with UBT negative results” value (Helicobacter pylori [2]; Follow up period (Day 44~50), Group C: Compound I 600 mg BID + rabeprazole sodium 20 mg BID)?
A: 4 (40.0) n(%)

Q: What about the “Patients with UBT negative results” value (Helicobacter pylori [2]; Follow up period (Day 44~50), Group D: Compound I 400 mg BID + rabeprazole sodium 20 mg BID + amoxicillin 1 g BID) of the same compound?
A: 8 (80.0) n(%)

Q: What about the “Eradication rate of H. pylori” value (Helicobacter pylori [2]; Follow-up period (day 44 to day 50), Group D: Compound I 400 mg BID + rabeprazole sodium 20 mg BID + amoxicillin 1 g BID) of the same compound?
A: 80%

Q: What about the “UBT results Negative” value (Helicobacter pylori [3]; [4]) of the same compound?
A: 18 (90.0) n(%)

Q: And the “UBT results Positive” value (Helicobacter pylori [3]; [4])?
A: 1 (5.0) n(%)

Q: And the “UBT results Negative” value (Helicobacter pylori [3]; [5])?
A: 18 (94.7) n(%)

Q: What about the “UBT results Positive” value (Helicobacter pylori [3]; [5]) of the same compound?
A: 1 (5.3) n(%)

Q: What about the “UBT results Negative” value (Helicobacter pylori [3]; [6]) of the same compound?
A: 18 (90.0) n(%)

Q: And the “UBT results Positive” value (Helicobacter pylori [3]; [6])?
A: 1 (5.0) n(%)

Q: And the “UBT results Negative” value (Helicobacter pylori [3]; [7])?
A: 18 (94.7) n(%)

Q: What about the “UBT results Positive” value (Helicobacter pylori [3]; [7]) of the same compound?
A: 1 (5.3) n(%)

Q: And the “UBT results Negative” value (Helicobacter pylori [3]; [8])?
A: 18 (90.0) n(%)

Q: What about the “UBT results Positive” value (Helicobacter pylori [3]; [8]) of the same compound?
A: 1 (5.0) n(%)

Q: What about the “UBT results Negative” value (Helicobacter pylori [3]; [9]) of the same compound?
A: 18 (94.7) n(%)

Q: What about the “UBT results Positive” value (Helicobacter pylori [3]; [9]) of the same compound?
A: 1 (5.3) n(%)

Q: What about the “Eradication rate (mITT set) of Helicobacter pylori” value (Helicobacter pylori [3]; treatment group A: combination therapy of compound I, rabeprazole sodium and amoxicillin) of the same compound?
A: 94.7%
